Assay results published in US20100076089A1, “ANTIMICROBIAL GEL FORMULATIONS” (NovaBay Pharmaceuticals, Inc., priority 2008, published 2010).
Several values for one entry are separate records, joined by “and”; a condition that tells them apart may be missing. Identical values can stand only once.

Key:
[1] = system: S. aureus; test: Time-kill assay of antimicrobial gel formulations; assay type: cell-based; conditions: final inoculum 1.5×10^7 CFU/mL, room temperature
Procedure: Isolated S. aureus colonies were picked into 5 mL Tryptic Soy Broth (TSB) and grown for 4-6 hours at 37° C. Stock titers were determined by drop plate method. A working stock of S. aureus was prepared by dilution of the culture to a final inoculum of 1.5×10^8 colony forming units (CFU) per mL in sterile pH 4.0 saline. 900 μL of each tested formulation was placed in sterile glass tubes. A 0.1 mL aliquot of S. aureus suspension containing 1.5×10^8 CFU/mL was inoculated into the test sample container to give a final inoculum of 1.5×10^7 CFU/mL. The inoculated formulation was immediately mixed for 3 seconds following inoculation using a vortex and incubated at room temperature. A plate count was performed on the inoculated samples after 0, 5, 15, 30 and 60 minutes following inoculation as follows: • 0.1 mL of the inoculated antimicrobial test agent was placed into 0.9 mL of the D/E neutralizing broth • A 0.1 mL aliquot of each sample in D/E broth was drop plated on appropriately labeled agar dishes
All plates were incubated at 37° C. for 24 hours for bacterial growth assessment. At the conclusion of the incubation period the number of colonies present on the plates was counted. The total number of survivors at each time point was calculated by multiplying the CFU count obtained by the dilution factor.

[2] = system: S. aureus 29213; test: Radial diffusion assay of antimicrobial gel formulations; assay type: cell-based; conditions: 100 μl of formulation
Procedure: Vials containing 0.6% NVC-422 (Drug Control), liquid, pH=5.0; 3% Polyox® WSR 205 (Placebo) Liquid, R.T. pH=5.0; 0.6% NVC-422/3% Polyox® WSR 205, Liquid, R.T., pH=5.0; 0.75% AA-1 (Placebo), 0.6% NVC-422/0.75% AA-1 and 0.23% AA-1 (alternate placebo) were prepared. The first three test articles appeared as clear liquids, while the last three appeared as gels. The samples were tested in the radial diffusion assay against S. aureus 29213. 100 μl of each formulation were tested in duplicate on two plates each (n=4 total).

[3] = system: S. aureus 6538 biofilm; test: Calgary Biofilm Device (MBEC) assay, absorbance reading; assay type: cell-based; conditions: 24 hr biofilm, treatment 60 minutes, overnight regrowth in TSB; values greater than 0.1 indicate incomplete biofilm eradication
Procedure: S. aureus 6538 biofilm was grown in MBEC plates for 24 hr at 35° C. for 24 hr in TSB prior to treatment using the method describe above. The MBEC lid containing pegs coated with biofilm was first rinsed in a plate containing […] of PBS in each well for 1 minute, prior to treatment with a plate containing formulations for 60 minutes total. The lid was neutralized in a plate containing 200 μl D/E Neutralization broth in each well for 1 minute before transferring the lid into a plate containing 150 μl TSB in each well. Plate was incubated overnight at 35° C. Absorbance was read at 650 nm the following day.

[4] = Amount of N,N-dichloro-2,2-dimethyltaurine an AA-1 formulation can hold; assay type: physicochemical
From the text: The formulations may be made by mixing the N-halogenated or N,N-dihalogenated amine compound with the polymer using water. Water/oil emulsions, hydrating agents, wetting agents, surfactants, and the like may also be used. Concentrations of N-halogenated or N,N-dihalogenated amine compound may range from about 0.01% to about 5.0% (by weight). Concentrations of polymer may be from about 0.01% to about 10% (by weight) in water. For example, in certain implementations, the concentration of N-halogenated or N,N-dihalogenated compounds may range from about 0.1% to about 2.0% (by weight). Higher concentrations of polymer may be required to formulate higher concentrations of the N-halogenated or N,N-dihalogenated amine compound. For example, a 1% AA-1 formulation can hold up to about 2% N,N-dichloro-2,2-dimethyltaurine, whereas a 2% AA-1 formulation can hold up to about 3.5% of the same compound. These ratios may differ as different polymers and N-halogenated or N,N-dihalogenated amine compound are combined in a given formulation.

## CC(C)(CS(=O)(=O)O)N(Cl)Cl [0.3% NVC-422 alone, N,N-dichloro-2,2-dimethyltaurine]
[1]
  time to complete kill: 1 h

## CC(C)(CS(=O)(=O)O)N(Cl)Cl [0.6% NVC-422, N,N-dichloro-2,2-dimethyltaurine]
[1]; listed as 0.6% NVC-422 alone
  time to complete kill: 0.25 h
[2]; pH 5.0
  Clearing zone diameters, Sample 1: 15 mm
  Clearing zone diameters, Sample 2: 16 mm
  Clearing zone diameters, Sample 3: 16 mm
  Clearing zone diameters, Sample 4: 14 mm
[2]; pH 5.0, n=4, pH 5
  Clearing zone diameters, Average +/− SD: 15.3 mm and 15.3 +/− 1.0 mm
[3]
  Ave. Abs at 650 nm: 0.48

## CC(C)(CS(=O)(=O)O)N(Cl)Cl [NVC-422, N,N-dichloro-2,2-dimethyltaurine]
[4]; 1% AA-1 formulation
  amount of compound the formulation can hold: up to 2%
[4]; 2% AA-1 formulation
  amount of compound the formulation can hold: up to 3.5%
